How the values were obtained:
BALB/C mice = assay: In vivo expression, whole-body luminescence (IVIS)
Protocol: 6-8 week old, female BALB/C mice were injected with 0.05 mg*kg-1 of RNA-LNPs encoding for firefly-luciferase by intravenous injection. At 6 hours post injection, animals were intraperitoneally injected with 15 mg/ml of Luciferin substrate and whole-body luminescence was determined by a bioluminescent in vivo imaging system (IVIS).

[1] = RNA encapsulation efficacy by Quant-IT Ribogreen kit; format: physicochemical; details: for Encapsulation Efficiency %: LNP with cirRNA (SEQ ID NO: 1); for Encapsulation Efficiency: LNP with mRNA (SEQ ID NO: 2)
In short: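 Ribogreen read-out: encapsulation = 100% − (signal of intact RNA-LNPs / signal with Triton X-100). Particles: ionizable lipid:DSPC:Chol:DMG-PEG2000 50:10:38.5:1.5, ionizable lipid:ribonucleotide 15 or 6, final lipid 1.5–6 mM, PBS-dialyzed.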

Hep G2 cells [2] = assay: In vitro expression of firefly-luciferase, Hep G2; format: cell-based
In short: (§1)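 Both cell lines receive RNA-LNPs carrying firefly-luciferase RNA at 100 ng/mL. Lysis follows washing at 72 h post-transfection, and luciferase activity is then quantified on a luminometer using a commercial luciferase assay reagent.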

RAW 264.7 cells [3] = assay: In vitro expression of firefly-luciferase, RAW 264.7; format: cell-based
In short: as §1

[4] = LNP size and polydispersity index (PDI) by dynamic light scattering; format: physicochemical; details: for Size: in nm (unit assumed)
In short: (§2)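 Ribogreen fluorescence with and without Triton X-100 gave encapsulation as 100% − (intact/lysed) signal; DLS size, PDI and zeta potential measured on a Zetasizer. Particles: 50:10:38.5:1.5 lipid mix, luciferase circRNA or mRNA, lipid:nucleotide 15 or 6, microfluidic assembly at pH 4.5, PBS-dialyzed.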

[5] = LNP zeta potential (Zetasizer); format: physicochemical
In short: as §2

Hep G2 cells [6] = assay: In vitro toxicity (CellTiter-Glo cell viability), Hep G2; format: cell-based;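 further: percent of untreated cells luminescence signal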
In short: (§3)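 RNA-LNPs 1 μg/mL; 72 h post-transfection; CellTiter-Glo luminescence read-out; % viability calculated from signal.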

RAW 264.7 cells [7] = assay: In vitro toxicity (CellTiter-Glo cell viability), RAW 264.7; format: cell-based;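 further: percent of untreated cells luminescence signal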
In short: as §3

[8] = cirRNA (SEQ ID NO: 1) LNPs, BALB/C mice
[9] = cirRNA (SEQ ID NO: 1) LNPs, firefly-luciferase luminescence, Hep G2 cells
[10] = cirRNA (SEQ ID NO: 1) LNPs, firefly-luciferase luminescence, RAW 264.7 cells
[11] = cirRNA (SEQ ID NO: 1) LNPs, Hep G2 cells
[12] = cirRNA (SEQ ID NO: 1) LNPs, RAW 264.7 cells
[13] = mRNA (SEQ ID NO: 2) LNP, 0.05 mg*kg-1 intravenous, 6 hours post injection
[14] = mRNA (SEQ ID NO: 2) LNP, 100 ng/mL, 72 hours post transfection, luciferase activity
[15] = mRNA (SEQ ID NO: 2) LNP, 1 μg/mL, 72 hours post transfection

Encapsulation Efficiency % [1] [%] | PDI ([4]; LNP with cirRNA (SEQ ID NO: 1)) | Size ([4]; LNP with cirRNA (SEQ ID NO: 1)) | Zeta (mV) ([5]; LNP with cirRNA (SEQ ID NO: 1)) | Encapsulation Efficiency [1] [%] | PDI ([4]; LNP with mRNA (SEQ ID NO: 2)) | Size ([4]; LNP with mRNA (SEQ ID NO: 2)) | Zeta (mV) ([5]; LNP with mRNA (SEQ ID NO: 2)) | SMILES | In vivo Expression (Whole Body) (BALB/C mice; [8]) | In vitro Expression HepG2 (Hep G2 cells [2]; [9]) | In vitro Expression RAW (RAW 264.7 cells [3]; [10]) | In vitro Viability HepG2 (Hep G2 cells [6]; [11]) [%] | In vitro Viability RAW (RAW 264.7 cells [7]; [12]) [%] | In vivo Expression (Whole Body) (BALB/C mice; [13]) | In vitro Expression HepG2 (Hep G2 cells [2]; [14]) | In vitro Expression RAW (RAW 264.7 cells [3]; [14]) | In vitro Viability HepG2 (Hep G2 cells [6]; [15]) [%] | In vitro Viability RAW (RAW 264.7 cells [7]; [15]) [%]
89 | 0.3944 | 88.25 | 11.87 |  |  |  |  | CCCCCCCCCC(=O)OCCCCCCCN(CCCCCCCCOC(=O)C(CCCCCC)CCCCCCCC)CCCOC(=O)NCCN1CCN(C)CC1 (stereo not shown) [Lipid 362] | 1.68E+06 | 3.82E+04 | 1.99E+03 | 106 | 0 |  |  |  |  | 
89 | 0.2481 | 113.5 | 0.2395 |  |  |  |  | CCCCCCCCCCC(CCCCCCCC)COC(=O)CCCCCN(CCCCCCCCOC(=O)C(CCCCCC)CCCCCCCC)CCCOC(=O)NCCN(C)C (stereo not shown) [Lipid 364] | 4.73E+06 | 1.11E+06 | 9.94E+04 | 81 | 64 |  |  |  |  | 
92 | 0.2663 | 118.2 | 4.685 |  |  |  |  | CCCCCCCCCCC(CCCCCCCC)COC(=O)CCCCCN(CCCCCC(=O)OCC(CCCCCCCC)CCCCCCCCCC)CCCOC(=O)NCCN1CCC1 (stereo not shown) [Lipid 372] | 1.10E+06 | 4.98E+03 | 3.30E+02 | 42 | 57 |  |  |  |  | 
92 | 0.2353 | 92.65 | −3.695 |  |  |  |  | CCCCCCCCCCC(CCCCCCCC)COC(=O)CCCCCN(CCCCCC(=O)OCC(CCCCCCCC)CCCCCCCCCC)CCCOC(=O)NCCN1CCCCCC1 (stereo not shown) [Lipid 373] | 5.62E+06 | 5.98E+04 | 2.32E+04 | 63 | 91 |  |  |  |  | 
93 | 0.2338 | 112.8 | 2.594 |  |  |  |  | CCCCCCCCC(CCCCCC)C(=O)OCCCCCCCCN(CCCCCCCCOC(=O)C(CCCCCC)CCCCCCCC)CCCOC(=O)NCCN1CCN(C)CC1 (stereo not shown) [Lipid 377] | 8.84E+06 | 2.55E+06 | 1.05E+05 | 71 | 85 |  |  |  |  | 
94 | 0.2458 | 159 | 11.28 |  |  |  |  | CCCCCCCCC(CCCCCC)C(=O)OCCCCCCCCN(CCCCCCCCOC(=O)C(CCCCCC)CCCCCCCC)CCCNCCCN(CC)CC (stereo not shown) [Lipid 385] | 1.79E+06 | 1.31E+05 | 1.37E+04 | 74 | 80 |  |  |  |  | 
88 | 0.2623 | 93.61 | 3.811 | 86.87 | 0.2472 | 80.28 | 0.02157 | CCCCC/C=C\C/C=C\CCCCCCCCN(CCCCCCCC/C=C\C/C=C\CCCCC)CCOC(=O)[C@@H](N)Cc1c[nH]cn1 [Lipid B, reference compound] |  | 8.71E+05 |  |  |  | 3.42E+08 | 4.21E+05 | 1.32E+05 | 97 | 92

Second part, the compound before the results:

SMILES | Encapsulation Efficiency % [1] [%] | PDI ([4]; LNP with cirRNA (SEQ ID NO: 1)) | Size ([4]; LNP with cirRNA (SEQ ID NO: 1)) | Zeta (mV) ([5]; LNP with cirRNA (SEQ ID NO: 1)) | Encapsulation Efficiency [1] [%] | PDI ([4]; LNP with mRNA (SEQ ID NO: 2)) | Size ([4]; LNP with mRNA (SEQ ID NO: 2)) | Zeta (mV) ([5]; LNP with mRNA (SEQ ID NO: 2)) | In vivo Expression (Whole Body) (BALB/C mice; [8]) | In vitro Expression HepG2 (Hep G2 cells [2]; [9]) | In vitro Expression RAW (RAW 264.7 cells [3]; [10]) | In vitro Viability HepG2 (Hep G2 cells [6]; [11]) [%] | In vitro Viability RAW (RAW 264.7 cells [7]; [12]) [%] | In vivo Expression (Whole Body) (BALB/C mice; [13]) | In vitro Expression HepG2 (Hep G2 cells [2]; [14]) | In vitro Expression RAW (RAW 264.7 cells [3]; [14]) | In vitro Viability HepG2 (Hep G2 cells [6]; [15]) [%] | In vitro Viability RAW (RAW 264.7 cells [7]; [15]) [%]
CCCCCCCCC(CCCCCCCC)OC(=O)CCCCCCCN(CCCCCCCCOC(=O)C(CCCCCC)CCCCCCCC)CCCNCCN(C)C (stereo not shown) [Lipid 363] | 92 | 0.2547 | 130.7 | 5.356 |  |  |  |  | 2.22E+06 | 3.17E+05 | 9.15E+03 | 112 | 65 |  |  |  |  | 
CCCCCCCCCCC(CCCCCCCC)COC(=O)CCCCCN(CCCCCC(=O)OCC(CCCCCCCC)CCCCCCCCCC)CCCOC(=O)NCc1ncc[nH]1 (stereo not shown) [Lipid 365] | 92 | 0.1303 | 72.69 | −2.341 |  |  |  |  | 1.32E+08 | 3.17E+05 | 3.87E+04 | 109 | 88 |  |  |  |  | 
CCCCCCCCCCC(CCCCCCCC)COC(=O)CCCCCN(CCCCCC(=O)OCC(CCCCCCCC)CCCCCCCCCC)CCCOC(=O)NCCCN(CC)CC (stereo not shown) [Lipid 366] | 92 | 0.2572 | 118.4 | −0.4163 |  |  |  |  | 3.26E+06 | 3.39E+05 | 2.01E+04 | 84 | 99 |  |  |  |  | 
CCCCCCCCCCC(CCCCCCCC)COC(=O)CCCCCN(CCCCCC(=O)OCC(CCCCCCCC)CCCCCCCCCC)CCCOC(=O)NCCN1CCN(C)CC1 (stereo not shown) [Lipid 367] | 91 | 0.2544 | 131.6 | 0.7313 |  |  |  |  | 1.74E+06 | 5.88E+05 | 2.48E+04 | 85 | 90 |  |  |  |  | 
CCCCCCCCCCC(CCCCCCCC)COC(=O)CCCCCN(CCCCCC(=O)OCC(CCCCCCCC)CCCCCCCCCC)CCCOC(=O)NCCNC(C)C (stereo not shown) [Lipid 368] | 92 | 0.2875 | 130.2 | 3.421 |  |  |  |  | 4.18E+06 | 1.22E+06 | 1.18E+05 | 68 | 67 |  |  |  |  | 
CCCCCCCCC(CCCCCC)C(=O)OCCCCCCCCN(CCCCCCCCOC(=O)C(CCCCCC)CCCCCCCC)CCCOC(=O)NCCCN(C)C (stereo not shown) [Lipid 378] | 93 | 0.2637 | 130.6 | 6.729 |  |  |  |  | 8.79E+06 | 3.39E+06 | 6.58E+05 | 26 | 75 |  |  |  |  | 
CCCCCCCCC(CCCCCC)C(=O)OCCCCCCCCN(CCCCCCCCOC(=O)C(CCCCCC)CCCCCCCC)CCCOC(=O)NCCN1CCCC1 (stereo not shown) [Lipid 379] | 92 | 0.1919 | 117.2 | 3.38 |  |  |  |  | 2.86E+07 | 1.16E+07 | 1.60E+06 | 45 | 72 |  |  |  |  | 
CCCCCCCCC(CCCCCC)C(=O)OCCCCCCCCN(CCCCCCCCOC(=O)C(CCCCCC)CCCCCCCC)CCCOC(=O)NCCN1CCC1 (stereo not shown) [Lipid 382] | 94 | 0.2452 | 145.3 | 4.75 |  |  |  |  | 4.22E+06 | 3.97E+05 | 5.69E+04 | 42 | 84 |  |  |  |  | 
CCCCCCCCC(CCCCCC)C(=O)OCCCCCCCCN(CCCCCCCCOC(=O)C(CCCCCC)CCCCCCCC)CCCNCCN(C)C (stereo not shown) [Lipid 384] | 96 | 0.2423 | 135.9 | 8.213 |  |  |  |  | 1.15E+07 | 2.57E+06 | 3.15E+05 | 81 | 88 |  |  |  |  | 
CCCCC/C=C\C/C=C\CCCCCCCCN(CCCCCCCC/C=C\C/C=C\CCCCC)CCOC(=O)CCCN(C)C [Lipid A, reference compound] | 74 | 0.2901 | 145.2 | 1.916 | 83.95 | 0.2719 | 118 | 10.76 |  | 1.90E+06 |  |  |  | 2.13E+08 | 3.08E+07 | 5.86E+06 | 108 | 96

Reference: patent publication US12691070B2, “Cationic lipids and preparation method thereof” (RiboX Therapeutics HK Limited, priority 2023, dated 2026)
